The nature of one data set: pKa and ionization. It is filed as physicochemical. As to conditions: pH of approximately 7.
For data set [1] the following is noted: compounds from Allium grayi Regel and Allium fistulosum; cited from earlier work.
A short description of data set [2]: Non-enzymatic reaction of AllylSH with H2O2. The class given is physicochemical. An excerpt: Thiols are known to have various antioxidant properties, including the ability to scavenge (H2O2), although the specific ability of allyl mercaptan in this regard may not have been previously investigated.
The next data set has as its system prostaglandin synthase. To be noted: 50 uM/L; cited from earlier work.
The conditions of data set [3]: cited from earlier work; for Reaction in Blood Half-life / Reaction in Blood Product (moles): in vitro.
Another data set has as its target CYP2D6 (Homo sapiens, UniProt P10635). As to conditions: cited from earlier work.
The conditions of data set [4]: cited from earlier work.
A further data set has as its system uninfected cells. As to conditions: 0.01 mM.
The conditions of data set [5]: chemiluminescense assay; cited from earlier work.
In the next data set the test system is cells. To be noted: in vitro exposure; cited from earlier work.
The conditions of data set [6]: mice, cited from earlier work; for protection from acetaminophen poisoning, pretreatment: SAMC 100 mg/kg.
In the next data set the test system is SARS coronavirus. The experiment in a line: microbe, parasite or virus in culture. To be noted: Severe acute respiratory syndrome coronavirus, read-out: reduction in the viability of infected cells.
For another data set, the system named is Sendai virus. As to conditions: post treatment one hour after infection, measured 24 hours post infection; cited from earlier work.
Another data set relates to neutrophil influx. As to conditions: intravenous, 150 mg/kg; cited from earlier work.
The next data set concerns 13 types of bacteria. As to conditions: cited from earlier work.

This is an account of results in patent US8222299B2, “Organosulfur prodrugs for the prevention and treatment of infectious diseases” (Allium Vitalis Incorporated, priority 2003, dated 2012).

SMILES strings stand for the structures. Entries after “also recorded” stand apart in the source; their conditions may differ.

Chain of CYP2D6 (P10635 whole entry): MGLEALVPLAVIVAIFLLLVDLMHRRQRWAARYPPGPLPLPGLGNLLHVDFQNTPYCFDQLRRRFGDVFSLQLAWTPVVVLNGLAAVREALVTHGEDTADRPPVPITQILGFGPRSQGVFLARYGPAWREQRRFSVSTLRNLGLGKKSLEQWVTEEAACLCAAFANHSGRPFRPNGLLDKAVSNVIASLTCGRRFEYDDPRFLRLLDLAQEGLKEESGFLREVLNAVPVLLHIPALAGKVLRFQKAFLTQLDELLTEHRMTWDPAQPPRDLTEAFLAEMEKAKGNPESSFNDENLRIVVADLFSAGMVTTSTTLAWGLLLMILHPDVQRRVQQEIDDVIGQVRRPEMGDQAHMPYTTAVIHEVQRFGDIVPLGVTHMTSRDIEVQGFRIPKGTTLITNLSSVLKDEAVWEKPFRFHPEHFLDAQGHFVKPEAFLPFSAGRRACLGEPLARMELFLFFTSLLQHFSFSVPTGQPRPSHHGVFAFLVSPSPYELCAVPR

With `N[C@@H](CS)C(=O)O` [Cys, Cysteine], the fraction ionized entry in “pKa and ionization” is “approximately 3%”.

Consider `CCCS[S+]([O-])CCC` (stereo not shown) [CH3(CH2)2S˜SO(CH2)2CH3], for which the nematicidal activity entry in [1] is listed as “most effective compound found”.

On to `C=CCSSCC=C` [DADS, DiAllylDisulfide], for which, in data set [2] (initial 40 mM H2O2 and 0.85 mM Allyl-SH, FIG. 2), the “reaction with H2O2 at high concentration” value is reported as “further oxidized to Allicin”. Besides, the “inhibition of prostaglandin synthase” value with prostaglandin synthase is listed as 69%. Also, in data set [3], the “Reaction in Blood Half-life” value is recorded as 60 min and the “Reaction in Blood Product (moles)” value is on record as “AllylSH (0.8)”. Further, the “activity of the enzymes” value at CYP2D6 is “up to 121 pmol/min/pmol CYP2D6”. At CYP2D6 (in 30 minutes), the “conversion of DADS to allicin” value is reported as “approximately 30%”. Besides, the “water solubility in words” value in data set [4] is on record as “poor water solubility”.

Take `C=CCSSC[C@H](N)C(=O)O` [SAMC, S-AllylMercaptoCysteine]: the “toxicity to uninfected cells” value in the data set with uninfected cells is recorded as “no toxicity”. Also, in data set [5], the “antioxidant or pro-oxidant activity” value is on record as “by far the most effective antioxidant”. Besides, the “total glutathione level of cells” value with cells was “significantly increase; also recorded: significant increase”. Moreover, the “protection from acetaminophen poisoning, pretreatment” value in data set [6] is given as “protect mice”. The “protection from acetaminophen poisoning, post treatment” value in data set [6] (single dose 200 mg/kg shortly after exposure) was “protective”. The “Reaction in Blood Product (moles)” value in data set [3] was “AllylSH (0.8)”. Moreover, the inhibition at 10 µM in the data set with SARS coronavirus was 6%.

Consider `N[C@@H](CCC(=O)N[C@@H](CS)C(=O)NCC(=O)O)C(=O)O` [Glutathione], for which the “reduction of the level of infection” value in the data set with Sendai virus is listed as 95%.

As to `C=CCS` [AllylSH, AllylThiol], the “reaction with H2O2 at low concentration” value in data set [2] (initial 10 mM H2O2 and 0.85 mM Allyl-SH, FIG. 1) was “can reduce hydrogen peroxide”.

`C=CCS[S+]([O-])CC=C` (stereo not shown) [Allicin, DiAllylThioSulfinate]: in [3] (blood cells exposed to allicin), the “time for metabolism to allyl-mercaptan” value is “less than one minute”. Also, in data set [3], the “Reaction in Blood Half-life” value is recorded as less than 1 min and the “Reaction in Blood Product (moles)” value is on record as “AllylSH (1.6)”.

`CC(=O)N[C@@H](CS)C(=O)O` [NAC, N-acetylcysteine]: the “IL-1 induced neutrophil influx into lung lavages” value in the data set with neutrophil influx is reported as “inhibited”.

With `C=CCSC[C@H](N)C(=O)O` [S-allylcysteine], the “protection from acetaminophen poisoning, pretreatment” value in data set [6] is given as “not nearly as effective”.

On to `O=C(N[C@H](CO)[C@H](O)c1ccc([N+](=O)[O-])cc1)C(Cl)Cl` [Chloramphenicol], for which the species inhibited in the data set on 13 types of bacteria (13 types of bacteria) is on record as 12/13. In the data set with 13 types of bacteria, the “average zone of inhibition” value was 20 mm.
